We go through 7 compounds from ChEMBL document CHEMBL1126077 (J Med Chem, 1992).

A word on the inhibition: it is the relative decrease from the control value, in per cent. High values mean strong suppression, low ones little suppression. One may read the IC50 as the concentration that inhibits the measured activity by half. High values mean lower potency, low ones higher potency. By Inhibition is commonly meant the change of the read-out against control, counted positive when it falls. A low value points to a weak effect.

Data set [1] deals with T1, Cholesterol side-chain cleavage enzyme, mitochondrial (Bos taurus, UniProt P00189).
T1 sequence (P00189 whole entry): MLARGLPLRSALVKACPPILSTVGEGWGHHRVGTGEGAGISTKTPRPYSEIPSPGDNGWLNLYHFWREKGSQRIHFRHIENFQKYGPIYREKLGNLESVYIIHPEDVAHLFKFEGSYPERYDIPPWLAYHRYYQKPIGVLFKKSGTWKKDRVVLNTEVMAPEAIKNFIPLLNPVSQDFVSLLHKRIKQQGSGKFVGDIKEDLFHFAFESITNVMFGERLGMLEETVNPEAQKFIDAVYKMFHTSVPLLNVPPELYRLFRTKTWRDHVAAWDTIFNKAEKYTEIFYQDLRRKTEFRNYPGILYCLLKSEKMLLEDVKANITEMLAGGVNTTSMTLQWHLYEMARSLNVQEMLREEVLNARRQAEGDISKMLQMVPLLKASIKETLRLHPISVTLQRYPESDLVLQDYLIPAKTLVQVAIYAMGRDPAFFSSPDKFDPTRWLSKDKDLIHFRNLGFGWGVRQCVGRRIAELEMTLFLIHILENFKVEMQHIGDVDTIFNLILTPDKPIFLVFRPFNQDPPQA
The experiment in a line: Inhibition of bovine adrenal desmolase at 25 uM. The following applies: cattle; for Inhibition: 25 µM.

A further data set addresses T2, Aromatase (Homo sapiens, UniProt P11511).
T2 sequence (P11511 whole entry): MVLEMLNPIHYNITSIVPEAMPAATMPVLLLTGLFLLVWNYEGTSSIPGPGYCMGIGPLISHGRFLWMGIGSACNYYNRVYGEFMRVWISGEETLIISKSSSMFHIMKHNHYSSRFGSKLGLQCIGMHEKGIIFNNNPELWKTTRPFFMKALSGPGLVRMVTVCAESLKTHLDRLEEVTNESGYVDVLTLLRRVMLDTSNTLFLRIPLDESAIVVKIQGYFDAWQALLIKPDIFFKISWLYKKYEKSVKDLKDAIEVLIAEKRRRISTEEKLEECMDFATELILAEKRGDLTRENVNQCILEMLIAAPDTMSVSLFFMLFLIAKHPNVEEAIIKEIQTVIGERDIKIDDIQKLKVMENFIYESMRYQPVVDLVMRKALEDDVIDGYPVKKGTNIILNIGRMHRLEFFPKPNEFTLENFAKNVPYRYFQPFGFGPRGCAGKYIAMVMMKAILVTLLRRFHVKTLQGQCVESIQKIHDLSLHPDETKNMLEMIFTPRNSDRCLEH

Data set [2] addresses T1, Cholesterol side-chain cleavage enzyme, mitochondrial. In words: Inhibition of bovine adrenal desmolase.

Description for Aromatase: Concentration inhibiting Aromatase

Regarding `CC[C@@]1(c2ccc(N)cc2)CCC(=O)NC1=O`, the inhibition at 25 µM in data set [1] was 36%.

The compound `CC[C@]1(c2ccc(N)cc2)CCC(=O)NC1=O` yielded an inhibition at 25 µM in data set [1] of 67%.

`Nc1ccc(C2(C3CCCC3)CCC(=O)NC2=O)cc1` (centres undefined) showed an IC50 on Aromatase of 1200 nM. The same compound registered an inhibition at 25 µM in data set [1] of 59%.

`Nc1ccc(C2(C3CCCCC3)CCC(=O)NC2=O)cc1` (single isomer, unassigned; (+)): the results for the IC50 (against Aromatase; in data set [2]) were 150 nM and 82 µM, respectively. The compound also gave an Inhibition in data set [1] of 19%.

In the case of `Nc1ccc(C2(C3CCCCC3)CCC(=O)NC2=O)cc1` (single isomer, unassigned; (-)), the IC50 at Aromatase is 4600 nM. This compound also showed an Inhibition in data set [1] of 39%.

Regarding `Nc1ccc(C2(C3CCCCC3)CCC(=O)NC2=O)cc1` (stereo in doubt; 2), the IC50 against Aromatase was 300 nM; in data set [2], 67 µM. The compound also gave an Inhibition in data set [1] of 31%.

The compound `CCC1(c2ccc(N)cc2)CCC(=O)NC1=O` (centres undefined) [AMINOGLUTETHIMIDE] yielded an IC50 in data set [2] of 29 µM. The compound further displayed an inhibition at 25 µM in data set [1] of 57%.
